Results on 38 compounds are retold here after ChEMBL document CHEMBL1154643, “Biaryl purine derivatives as potent antiproliferative agents: inhibitors of cyclin dependent kinases. Part I” (Bioorg Med Chem Lett, 2009).

Experiment [1] is described as follows: Antiproliferative activity against human HeLaS3 cells by sulforhodamine B assay. As to conditions: HeLa S3. In kind it is functional.
In experiment [2] the target is Cyclin-dependent kinase 2/cyclin E (Homo sapiens, UniProt P24941). Put plainly: Inhibition of recombinant CDK2/cyclin E. In kind it is protein-complex assay.
Experiment [3] deals with Cyclin-dependent kinase 2/cyclin A (Homo sapiens, UniProt P24941). Put plainly: Inhibition of recombinant CDK2/cyclin A. It is filed as protein-complex assay.

Consider `CC[C@H](CO)Nc1nc(NCc2ccc(-c3ccccc3)cc2)c2ncn(C(C)C)c2n1`, for which, in experiment [1], the GI50 was 400 nM.
As to `Cc1ccc(-c2ccc(CNc3nc(N[C@H]4CC[C@H](N)CC4)nc4c3ncn4C(C)C)cc2)cc1`, the IC50 was 200 nM in experiment [2] and 400 nM in experiment [3].
As for `CC(C)n1cnc2c(NCc3ccc(-c4ccccc4)cc3)nc(N[C@H]3CC[C@H](NS(=O)(=O)C(F)(F)F)CC3)nc21`, the IC50 in experiment [2] and in experiment [3] was over 5000 nM throughout.
For `Cc1ccc(-c2ccc(CNc3nc(N[C@H]4CC[C@H](N)CC4)nc4c3ncn4C(C)C)cc2)cc1C`, the IC50 came to 250 nM in experiment [2] and 500 nM in experiment [3].
`CC(C)n1cnc2c(NCc3ccc(-c4ccccc4)cc3)nc(N[C@@H]3CCCC[C@H]3N)nc21`: the IC50 in experiment [2] is 900 nM; in experiment [3], 2000 nM.
Turning to `CC(C)n1cnc2c(NCc3ccc(-c4ccccc4)cc3)nc(N3CCC(C(N)=O)CC3)nc21`, the IC50 in experiment [2] and in experiment [3] was over 5000 nM in each case.
On to `CC(C)n1cnc2c(NCc3ccc(-c4ccccc4)cc3)nc(N[C@H]3CC[C@H](NCC4CC4)CC3)nc21`, for which the IC50 in experiment [2] turned out to be 300 nM; in experiment [3], 900 nM.
For `CC(C)n1cnc2c(NCc3ccc(-c4ccccc4)cc3)nc(NCCCN)nc21` the same measures were 400 nM and 3000 nM.
In the case of `CC(=O)N[C@H]1CC[C@H](Nc2nc(NCc3ccc(-c4ccccc4)cc3)c3ncn(C(C)C)c3n2)CC1`, the figures for the IC50 in experiment [2] and in experiment [3] were 300 nM and 500 nM, respectively.
`CC(C)n1cnc2c(NCc3ccc(-c4ccccc4)cc3)nc(N[C@@H]3CCCC[C@@H]3N)nc21`: the IC50 came out at 400 nM in experiment [2] and 900 nM in experiment [3].
For the compound `CCN(CC)[C@H]1CC[C@H](Nc2nc(NCc3ccc(-c4ccccc4)cc3)c3ncn(C(C)C)c3n2)CC1`, the IC50 in experiment [2] amounted to 3000 nM; in experiment [3], 6000 nM.
Turning to `CC(C)n1cnc2c(NCc3ccc(-c4ccccc4)cc3)nc(N[C@H]3CC[C@H](NC(=O)CC4CC4)CC3)nc21`, the IC50 in experiment [2] was determined as 300 nM; in experiment [3], 600 nM.
As to `CC(C)n1cnc2c(NCc3ccc(-c4ccccc4)cc3)nc(N[C@H]3CC[C@H](O)CC3)nc21`, the IC50 in experiment [2] and in experiment [3] was 400 nM throughout.
On to `CC(C)n1cnc2c(NCc3ccc(-c4ccccc4)cc3)nc(NCCN)nc21`, for which the IC50 in experiment [2] came to 500 nM; in experiment [3], 600 nM.
`CCCCN[C@H]1CC[C@H](Nc2nc(NCc3ccc(-c4ccccc4)cc3)c3ncn(C(C)C)c3n2)CC1`: the half-maximal inhibitory concentration (IC50) stood at 300 nM in experiment [2] and 1000 nM in experiment [3].
Take `CC(C)n1cnc2c(NCc3ccc(-c4ccccc4)cc3)nc(NC[C@H](C)NC(=O)OC(C)(C)C)nc21`: the IC50 in experiment [2] turned out to be 800 nM; in experiment [3], 1000 nM.
For the compound `CC(C)n1cnc2c(NCc3ccc(-c4ccccc4)cc3)nc(N3CCC(N)C3)nc21` (centres undefined), the IC50 in experiment [2] and in experiment [3] was 3000 nM throughout.
For `CCC(=O)N[C@H]1CC[C@H](Nc2nc(NCc3ccc(-c4ccccc4)cc3)c3ncn(C(C)C)c3n2)CC1`, the IC50 in experiment [2] amounted to 200 nM; in experiment [3], 500 nM.
As for `CC(C)n1cnc2c(NCc3ccc(-c4ccccc4)cc3)nc(NC3CCCC(N)C3)nc21` (centres undefined), the IC50 amounted to 900 nM in experiment [2] and 1000 nM in experiment [3].
With `CC(C)n1cnc2c(NCc3ccc(-c4ccccc4)cc3)nc(NC3(CO)CCCC3)nc21`, the IC50 in experiment [2] came out at 600 nM; in experiment [3] it was 2000 nM.
As to `Cn1cnc2c(NCc3ccc(-c4ccccc4)cc3)nc(N[C@H]3CC[C@H](N)CC3)nc21`, the IC50 came to 800 nM in experiment [2] and 1000 nM in experiment [3].
As for `CC(C)n1cnc2c(NCc3ccc(-c4ccccc4)cc3)nc(NCC3CCNCC3)nc21`, the IC50 in experiment [2] worked out at 2500 nM; in experiment [3], 4000 nM.
Regarding `CC(C)n1cnc2c(NCc3ccc(-c4ccccc4)cc3)nc(NC[C@H](C)N)nc21`, the IC50 came out at 900 nM in experiment [2] and 2000 nM in experiment [3].
For the compound `Cc1cc(C)cc(-c2ccc(CNc3nc(N[C@H]4CC[C@H](N)CC4)nc4c3ncn4C(C)C)cc2)c1`, the half-maximal inhibitory concentration (IC50) in experiment [2] came out at 200 nM; in experiment [3], 400 nM.
Turning to `CC(C)n1cnc2c(NCc3ccc(-c4ccccc4)cc3)nc(NCCCCN)nc21`, the IC50 in experiment [2] and in experiment [3] was 3000 nM each time.
Consider `CC(C)n1cnc2c(NCc3ccc(-c4ccccc4)cc3)nc(N[C@H]3CC[C@H](NS(C)(=O)=O)CC3)nc21`, for which the IC50 is 200 nM in experiment [2] and 500 nM in experiment [3].
`CC(C)n1cnc2c(NCc3ccc(-c4cccc(Cl)c4)cc3)nc(N[C@H]3CC[C@H](N)CC3)nc21`: the IC50 in experiment [2] and in experiment [3] was 400 nM throughout.
For `COc1cccc(-c2ccc(CNc3nc(N[C@H]4CC[C@H](N)CC4)nc4c3ncn4C(C)C)cc2)c1`, the IC50 in experiment [2] stood at 150 nM; in experiment [3] it was 350 nM.
Regarding `CC(Nc1nc(N[C@H]2CC[C@H](N)CC2)nc2c1ncn2C(C)C)c1ccc(-c2ccccc2)cc1` (some centres undefined), the IC50 turned out to be 4000 nM in experiment [2] and 5000 nM in experiment [3].
For `CCCN[C@H]1CC[C@H](Nc2nc(NCc3ccc(-c4ccccc4)cc3)c3ncn(C(C)C)c3n2)CC1` the same measures were 400 nM and 500 nM.
Turning to `N[C@H]1CC[C@H](Nc2nc(NCc3ccc(-c4ccccc4)cc3)c3ncn(C4CCCC4)c3n2)CC1`, the IC50 was found to be 90 nM in experiment [2] and 100 nM in experiment [3].
With `CC(C)n1cnc2c(NCCc3ccc(-c4ccccc4)cc3)nc(N[C@H]3CC[C@H](N)CC3)nc21`, the results for the IC50 in experiment [2] and in experiment [3] were 800 nM and 1000 nM, respectively. In addition, halving of growth in experiment [1] (GI50) required 5000 nM.
On to `Cc1cccc(-c2ccc(CNc3nc(N[C@H]4CC[C@H](N)CC4)nc4c3ncn4C(C)C)cc2)c1`, for which the IC50 in experiment [2] was 200 nM; in experiment [3], 300 nM.
For `CC(C)n1cnc2c(NCc3ccc(-c4ccccc4Cl)cc3)nc(N[C@H]3CC[C@H](N)CC3)nc21`, the 50% inhibitory concentration (IC50) in experiment [2] was 600 nM; in experiment [3], 1000 nM.
For `CC(C)n1cnc2c(NCc3ccc(-c4ccccc4)cc3)nc(N3CCC(CN)CC3)nc21` the same measures were 1000 nM and 4000 nM.
Turning to `CCN[C@H]1CC[C@H](Nc2nc(NCc3ccc(-c4ccccc4)cc3)c3ncn(C(C)C)c3n2)CC1`, the IC50 came to 1000 nM in experiment [2] and 3000 nM in experiment [3].
In experiment [1], `Cn1cnc2c(NCc3ccccc3)nc(NCCO)nc21` [OLOMOUCINE] registered a 50% growth inhibitory concentration (GI50) of 65000 nM.
`CC[C@H](CO)Nc1nc(NCc2ccccc2)c2ncn(C(C)C)c2n1` [SELICICLIB]: in experiment [1], the GI50 was found to be 20000 nM.
